Key:
[1] = molecular target: T1, MASS; (1-methylalkyl)succinate synthase; MASSα2βγ2δ complex (Azoarcus sp. HxN1, UniProt A9J4K4); assay: cryo-EM structure of the complex, […] Å; format: binding; conditions: active site of MASSα (αβγδ side); anaerobic; no alkane present; DTT modelled in hydrocarbon site; no glycyl radical activation described
T1 construct: gene masD; full-length subunits co-expressed in E. coli NiCo21(DE3); N-terminal His tag on MASSα; asymmetric alpha2-beta-gamma2-delta complex; [4Fe-4S] in beta and gamma, single Fe in delta; with (1-methylalkyl)succinate synthase beta subunit; (1-methylalkyl)succinate synthase gamma subunit; (1-methylalkyl)succinate synthase delta subunit (rubredoxin-like)

[2] = molecular target: (1-methylalkyl)succinate synthase catalytic α-subunit (MASSα), protein product of masD (Azoarcus sp. strain HxN1); assay: cryo-EM structure; single-particle cryo-EM of the co-expressed, purified MASS complex (SEC fractions with dimeric MASSα), grids prepared anaerobically, 0.8 mg/mL, fumarate and DTT bound; 2.8 Å map (a first data set gave 7 Å)

T1 sequence (A9J4K4 1-839): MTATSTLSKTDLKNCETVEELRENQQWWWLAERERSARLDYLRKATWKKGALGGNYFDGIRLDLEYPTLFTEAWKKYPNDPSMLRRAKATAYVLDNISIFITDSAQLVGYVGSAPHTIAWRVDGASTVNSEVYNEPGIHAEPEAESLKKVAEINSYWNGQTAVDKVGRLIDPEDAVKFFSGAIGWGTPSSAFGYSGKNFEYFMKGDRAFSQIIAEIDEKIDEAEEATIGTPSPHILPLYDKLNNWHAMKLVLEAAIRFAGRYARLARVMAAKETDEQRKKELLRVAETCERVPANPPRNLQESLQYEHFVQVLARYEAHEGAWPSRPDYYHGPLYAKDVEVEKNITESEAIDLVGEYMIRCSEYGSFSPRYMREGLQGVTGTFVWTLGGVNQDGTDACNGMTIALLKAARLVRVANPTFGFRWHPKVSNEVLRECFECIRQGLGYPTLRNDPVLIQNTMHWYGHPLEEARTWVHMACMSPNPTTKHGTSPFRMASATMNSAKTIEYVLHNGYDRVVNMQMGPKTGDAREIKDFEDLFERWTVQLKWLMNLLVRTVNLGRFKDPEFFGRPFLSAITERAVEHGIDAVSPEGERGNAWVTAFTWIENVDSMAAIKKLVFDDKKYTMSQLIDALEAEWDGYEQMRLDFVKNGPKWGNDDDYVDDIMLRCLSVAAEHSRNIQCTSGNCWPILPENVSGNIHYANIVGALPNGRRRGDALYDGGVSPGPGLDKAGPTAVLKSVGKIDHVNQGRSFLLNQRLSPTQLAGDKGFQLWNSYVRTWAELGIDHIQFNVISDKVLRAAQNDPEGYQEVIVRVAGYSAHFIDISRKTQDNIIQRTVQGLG
T1 sequence (A9J4K2 1-61 partner): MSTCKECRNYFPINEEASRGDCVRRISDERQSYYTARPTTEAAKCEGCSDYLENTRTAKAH
T1 sequence (A9J4K0 1-120 partner): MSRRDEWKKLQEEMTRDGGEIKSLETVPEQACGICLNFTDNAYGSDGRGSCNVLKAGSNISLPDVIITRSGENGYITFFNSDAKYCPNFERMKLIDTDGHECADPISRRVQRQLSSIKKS
T1 sequence (A9J4K6 1-71 partner): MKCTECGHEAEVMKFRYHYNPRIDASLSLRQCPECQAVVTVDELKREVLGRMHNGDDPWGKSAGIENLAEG

stoichiometry N [2] | Compound | cryo-EM structure of the complex, 2.8 Å [1]
– | O=C(O)/C=C/C(=O)O [fumarate] | Density was observed for fumarate in a similar location as was observed for the fumarate
2 | (1-methylalkyl)succinate synthase catalytic α-subunit (MASSα), protein product of masD (enzyme) | –

Reference: publication PMC12358834, “Structural basis for anaerobic alkane activation by a multisubunit glycyl radical enzyme” (Proceedings of the National Academy of Sciences of the …, 2025)
